From ChEMBL document CHEMBL5465560, “Selectivity Literature for EUbOPEN Chemogenomic Library” (2024)

Experiments:
[1] = target: 1-phosphatidylinositol 3-phosphate 5-kinase (Homo sapiens) (UniProt Q9Y2I7); test: Selectivity interaction (Kinase panel (KiNativ target engagement assay in Jurkat cells)) EUB0001635a PIKFYVE; type: cell-based; conditions: Selectivity number of off-targets 0.0, Selectivity number of targets 233.0, Source Knowledge https://www.sciencedirect.com/science/article/pii/S2451945619300674?via%3Dihub, at 1 µM
[2] = target: Proto-oncogene tyrosine-protein kinase ROS (Homo sapiens) (UniProt P08922); test: Selectivity interaction (KinomeScan (DiscoverX)) EUB0000229b ROS1; conditions: at 10 µM
[3] = target: Mitogen-activated protein kinase 8 (Homo sapiens, UniProt P45983); test: Selectivity interaction (KinomeScan (DiscoverX)) EUB0000229b MAPK8; conditions: at 10 µM
[4] = target: Serine/threonine-protein kinase 26 (Homo sapiens, UniProt Q9P289); test: Selectivity interaction (KinomeScan (DiscoverX)) EUB0001079a STK26; conditions: at 1 µM
[5] = tested on: Epidermal growth factor receptor (Homo sapiens), P00533 [UNDEFINED MUTATION]; test: Selectivity interaction (KinomeScan (DiscoverX)) EUB0001079a EGFR; conditions: at 1 µM
[6] = target: T1, Mitogen-activated protein kinase kinase kinase 2 (Homo sapiens) (UniProt Q9Y2U5); test: Selectivity interaction (KinomeScan (DiscoverX)) EUB0000666a MAP3K2; conditions: at 10 µM
T1 sequence (whole entry): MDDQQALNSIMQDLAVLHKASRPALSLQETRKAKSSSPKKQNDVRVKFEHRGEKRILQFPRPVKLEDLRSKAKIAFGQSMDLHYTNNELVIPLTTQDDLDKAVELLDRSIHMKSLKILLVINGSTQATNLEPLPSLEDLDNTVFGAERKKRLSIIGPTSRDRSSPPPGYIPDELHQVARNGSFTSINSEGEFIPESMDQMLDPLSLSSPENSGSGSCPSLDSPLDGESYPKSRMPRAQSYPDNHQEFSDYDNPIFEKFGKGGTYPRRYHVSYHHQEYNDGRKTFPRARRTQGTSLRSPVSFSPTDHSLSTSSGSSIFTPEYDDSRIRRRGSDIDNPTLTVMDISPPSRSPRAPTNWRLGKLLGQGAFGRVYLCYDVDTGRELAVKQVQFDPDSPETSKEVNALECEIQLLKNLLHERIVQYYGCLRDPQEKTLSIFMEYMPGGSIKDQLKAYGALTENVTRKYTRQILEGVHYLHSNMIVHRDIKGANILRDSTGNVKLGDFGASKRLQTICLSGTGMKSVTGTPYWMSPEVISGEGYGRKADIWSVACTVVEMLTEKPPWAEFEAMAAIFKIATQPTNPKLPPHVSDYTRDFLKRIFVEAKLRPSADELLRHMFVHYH

[7] = target: Glycogen synthase kinase-3 beta (Homo sapiens, UniProt P49841); conditions: at 10 µM
[8] = target: T2, 3-phosphoinositide-dependent protein kinase 1 (Homo sapiens) (UniProt O15530); test: Selectivity interaction (KinomeScan (DiscoverX)) EUB0001049a PDPK1; conditions: at 1 µM
T2 sequence (whole entry): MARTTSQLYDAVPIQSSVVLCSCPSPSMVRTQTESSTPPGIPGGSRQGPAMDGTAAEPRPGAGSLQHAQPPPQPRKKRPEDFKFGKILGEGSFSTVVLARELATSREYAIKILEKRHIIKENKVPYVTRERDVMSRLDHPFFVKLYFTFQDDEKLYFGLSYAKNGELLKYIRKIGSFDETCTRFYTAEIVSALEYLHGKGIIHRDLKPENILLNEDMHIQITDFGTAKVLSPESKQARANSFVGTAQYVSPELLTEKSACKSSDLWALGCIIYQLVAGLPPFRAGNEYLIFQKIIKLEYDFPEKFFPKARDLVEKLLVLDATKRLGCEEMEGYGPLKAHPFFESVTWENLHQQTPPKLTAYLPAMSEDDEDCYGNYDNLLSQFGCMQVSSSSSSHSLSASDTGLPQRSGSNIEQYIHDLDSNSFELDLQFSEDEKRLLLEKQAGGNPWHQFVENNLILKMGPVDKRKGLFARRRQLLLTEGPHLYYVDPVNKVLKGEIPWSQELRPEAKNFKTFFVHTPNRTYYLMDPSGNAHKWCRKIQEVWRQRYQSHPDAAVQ

[9] = target: Ribosomal protein S6 kinase beta-2 (Homo sapiens) (UniProt Q9UBS0); test: Selectivity interaction (ActivX KiNativ screen (ex vivo kinase selectivity in human PBMCs)) EUB0001619a RPS6KB2; type: cell-based; conditions: PBMC, at 1 µM
[10] = target: Tyrosine-protein kinase ABL2 (Homo sapiens, UniProt P42684); test: Selectivity interaction (ActivX KiNativ screen (ex vivo kinase selectivity in human PBMCs)) EUB0001619a ABL2; type: cell-based; conditions: PBMC, at 1 µM
[11] = target: Ephrin type-A receptor 7 (Homo sapiens) (UniProt Q15375); test: Selectivity interaction (KinomeScan (DiscoverX)) EUB0001619a EPHA7; conditions: at 1 µM
[12] = target: Hepatocyte growth factor receptor (Homo sapiens, UniProt P08581); conditions: at 10 µM
[13] = target: Serine/threonine-protein kinase PAK 2 (Homo sapiens) (UniProt Q13177); test: Selectivity interaction (Ambit KINOMEscan and KiNATiv profiling in Jurkat cells) EUB0000090b PAK2; type: cell-based; conditions: at 1 µM
[14] = target: T3, Homeodomain-interacting protein kinase 4 (Homo sapiens) (UniProt Q8NE63); test: Selectivity interaction (Ambit KINOMEscan and KiNATiv profiling in Jurkat cells) EUB0000090b HIPK4; type: cell-based; conditions: at 1 µM
T3 sequence (whole entry): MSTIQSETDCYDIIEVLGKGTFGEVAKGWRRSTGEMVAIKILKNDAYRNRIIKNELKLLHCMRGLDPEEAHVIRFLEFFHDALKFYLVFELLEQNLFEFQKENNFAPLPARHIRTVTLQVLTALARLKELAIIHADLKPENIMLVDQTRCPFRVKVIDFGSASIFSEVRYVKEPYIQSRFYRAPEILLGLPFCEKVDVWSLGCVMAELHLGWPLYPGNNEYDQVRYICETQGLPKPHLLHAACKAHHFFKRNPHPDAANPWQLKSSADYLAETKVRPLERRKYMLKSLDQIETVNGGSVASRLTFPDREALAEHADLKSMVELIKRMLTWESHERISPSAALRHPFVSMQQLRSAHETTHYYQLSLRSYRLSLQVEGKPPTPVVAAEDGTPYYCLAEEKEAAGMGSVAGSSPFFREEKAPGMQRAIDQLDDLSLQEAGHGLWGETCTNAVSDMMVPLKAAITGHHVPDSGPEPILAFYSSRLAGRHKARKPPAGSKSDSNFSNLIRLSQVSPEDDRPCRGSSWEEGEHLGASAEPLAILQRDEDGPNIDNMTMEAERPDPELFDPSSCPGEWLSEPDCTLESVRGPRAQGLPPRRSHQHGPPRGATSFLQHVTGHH

Chain of Serine/threonine-protein kinase PAK 2 (Homo sapiens) (Q13177 whole entry): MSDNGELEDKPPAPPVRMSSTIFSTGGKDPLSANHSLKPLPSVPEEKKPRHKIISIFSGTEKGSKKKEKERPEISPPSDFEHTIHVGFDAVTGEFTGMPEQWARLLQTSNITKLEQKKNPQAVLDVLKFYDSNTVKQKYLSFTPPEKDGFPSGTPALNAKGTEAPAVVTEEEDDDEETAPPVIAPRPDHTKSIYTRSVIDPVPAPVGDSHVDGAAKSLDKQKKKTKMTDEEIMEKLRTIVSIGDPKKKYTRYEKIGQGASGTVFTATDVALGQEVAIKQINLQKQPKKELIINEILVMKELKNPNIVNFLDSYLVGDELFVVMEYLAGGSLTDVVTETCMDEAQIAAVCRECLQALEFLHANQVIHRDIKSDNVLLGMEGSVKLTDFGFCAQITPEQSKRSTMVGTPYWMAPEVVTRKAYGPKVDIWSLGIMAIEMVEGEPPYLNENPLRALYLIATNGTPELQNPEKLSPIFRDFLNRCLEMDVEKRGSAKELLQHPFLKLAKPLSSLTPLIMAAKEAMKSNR
Chain of Ribosomal protein S6 kinase beta-2 (Homo sapiens) (Q9UBS0 whole entry): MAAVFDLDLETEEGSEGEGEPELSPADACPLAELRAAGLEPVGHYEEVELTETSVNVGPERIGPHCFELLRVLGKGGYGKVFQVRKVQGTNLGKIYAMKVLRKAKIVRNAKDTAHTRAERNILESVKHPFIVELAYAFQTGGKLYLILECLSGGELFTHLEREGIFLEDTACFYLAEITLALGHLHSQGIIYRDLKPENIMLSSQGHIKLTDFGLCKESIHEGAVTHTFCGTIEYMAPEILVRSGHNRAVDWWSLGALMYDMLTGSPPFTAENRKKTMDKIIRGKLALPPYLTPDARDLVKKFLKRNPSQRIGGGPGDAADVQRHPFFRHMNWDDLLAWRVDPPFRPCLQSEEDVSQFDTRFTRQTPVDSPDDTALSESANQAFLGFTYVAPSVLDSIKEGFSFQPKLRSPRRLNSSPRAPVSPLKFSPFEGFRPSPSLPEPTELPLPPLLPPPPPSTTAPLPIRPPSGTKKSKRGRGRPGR
Chain of Hepatocyte growth factor receptor (P08581 whole entry): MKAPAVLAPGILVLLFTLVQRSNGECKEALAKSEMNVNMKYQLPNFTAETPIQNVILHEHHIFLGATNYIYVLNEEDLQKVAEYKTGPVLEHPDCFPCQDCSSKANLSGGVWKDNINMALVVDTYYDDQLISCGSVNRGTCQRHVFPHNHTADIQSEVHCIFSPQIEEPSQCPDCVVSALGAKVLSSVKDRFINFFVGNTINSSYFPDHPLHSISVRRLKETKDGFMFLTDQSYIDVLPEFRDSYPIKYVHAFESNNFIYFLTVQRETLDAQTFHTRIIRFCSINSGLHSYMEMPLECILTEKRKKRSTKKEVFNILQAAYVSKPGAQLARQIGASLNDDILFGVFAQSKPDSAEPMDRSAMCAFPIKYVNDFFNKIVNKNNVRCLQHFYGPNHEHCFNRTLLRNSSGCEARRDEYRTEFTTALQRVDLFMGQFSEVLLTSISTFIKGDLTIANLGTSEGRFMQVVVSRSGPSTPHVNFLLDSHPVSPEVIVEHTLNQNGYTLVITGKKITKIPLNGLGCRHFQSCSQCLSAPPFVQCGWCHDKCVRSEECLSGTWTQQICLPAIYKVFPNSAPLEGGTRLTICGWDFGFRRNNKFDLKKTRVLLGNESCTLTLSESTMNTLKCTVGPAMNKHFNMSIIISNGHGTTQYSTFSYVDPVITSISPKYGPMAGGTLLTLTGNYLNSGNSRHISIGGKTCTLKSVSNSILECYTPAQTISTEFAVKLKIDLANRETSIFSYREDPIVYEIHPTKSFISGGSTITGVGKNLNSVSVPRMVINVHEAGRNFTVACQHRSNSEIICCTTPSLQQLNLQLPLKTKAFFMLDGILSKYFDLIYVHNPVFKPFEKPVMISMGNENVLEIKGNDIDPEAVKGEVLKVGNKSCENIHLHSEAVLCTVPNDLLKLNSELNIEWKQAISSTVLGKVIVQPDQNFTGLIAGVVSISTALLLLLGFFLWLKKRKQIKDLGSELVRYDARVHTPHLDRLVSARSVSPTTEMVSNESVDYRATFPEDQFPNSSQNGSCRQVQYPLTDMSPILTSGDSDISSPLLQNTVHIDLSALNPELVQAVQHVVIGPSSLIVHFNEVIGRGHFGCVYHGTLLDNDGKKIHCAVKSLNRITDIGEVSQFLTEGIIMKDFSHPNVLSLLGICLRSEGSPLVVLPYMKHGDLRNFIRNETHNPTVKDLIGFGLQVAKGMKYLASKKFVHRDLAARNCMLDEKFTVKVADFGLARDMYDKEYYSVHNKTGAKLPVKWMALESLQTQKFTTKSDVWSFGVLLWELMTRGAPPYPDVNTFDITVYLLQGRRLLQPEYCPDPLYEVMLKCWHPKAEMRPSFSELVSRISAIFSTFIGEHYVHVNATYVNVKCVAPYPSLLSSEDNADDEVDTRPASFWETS
Chain of Serine/threonine-protein kinase 26 (Q9P289 2-416 limits assumed): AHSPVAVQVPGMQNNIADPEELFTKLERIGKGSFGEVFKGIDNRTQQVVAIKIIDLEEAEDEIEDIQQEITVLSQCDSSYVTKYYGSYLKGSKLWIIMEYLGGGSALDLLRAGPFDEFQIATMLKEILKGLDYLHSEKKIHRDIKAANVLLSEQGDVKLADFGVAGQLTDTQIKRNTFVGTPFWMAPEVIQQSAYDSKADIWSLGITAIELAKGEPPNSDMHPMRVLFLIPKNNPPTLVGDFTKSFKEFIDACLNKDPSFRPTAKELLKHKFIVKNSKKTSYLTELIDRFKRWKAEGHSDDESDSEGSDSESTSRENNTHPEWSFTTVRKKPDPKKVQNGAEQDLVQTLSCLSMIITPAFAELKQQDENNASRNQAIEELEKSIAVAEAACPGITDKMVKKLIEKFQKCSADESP
Chain of 1-phosphatidylinositol 3-phosphate 5-kinase (Homo sapiens) (Q9Y2I7 whole entry): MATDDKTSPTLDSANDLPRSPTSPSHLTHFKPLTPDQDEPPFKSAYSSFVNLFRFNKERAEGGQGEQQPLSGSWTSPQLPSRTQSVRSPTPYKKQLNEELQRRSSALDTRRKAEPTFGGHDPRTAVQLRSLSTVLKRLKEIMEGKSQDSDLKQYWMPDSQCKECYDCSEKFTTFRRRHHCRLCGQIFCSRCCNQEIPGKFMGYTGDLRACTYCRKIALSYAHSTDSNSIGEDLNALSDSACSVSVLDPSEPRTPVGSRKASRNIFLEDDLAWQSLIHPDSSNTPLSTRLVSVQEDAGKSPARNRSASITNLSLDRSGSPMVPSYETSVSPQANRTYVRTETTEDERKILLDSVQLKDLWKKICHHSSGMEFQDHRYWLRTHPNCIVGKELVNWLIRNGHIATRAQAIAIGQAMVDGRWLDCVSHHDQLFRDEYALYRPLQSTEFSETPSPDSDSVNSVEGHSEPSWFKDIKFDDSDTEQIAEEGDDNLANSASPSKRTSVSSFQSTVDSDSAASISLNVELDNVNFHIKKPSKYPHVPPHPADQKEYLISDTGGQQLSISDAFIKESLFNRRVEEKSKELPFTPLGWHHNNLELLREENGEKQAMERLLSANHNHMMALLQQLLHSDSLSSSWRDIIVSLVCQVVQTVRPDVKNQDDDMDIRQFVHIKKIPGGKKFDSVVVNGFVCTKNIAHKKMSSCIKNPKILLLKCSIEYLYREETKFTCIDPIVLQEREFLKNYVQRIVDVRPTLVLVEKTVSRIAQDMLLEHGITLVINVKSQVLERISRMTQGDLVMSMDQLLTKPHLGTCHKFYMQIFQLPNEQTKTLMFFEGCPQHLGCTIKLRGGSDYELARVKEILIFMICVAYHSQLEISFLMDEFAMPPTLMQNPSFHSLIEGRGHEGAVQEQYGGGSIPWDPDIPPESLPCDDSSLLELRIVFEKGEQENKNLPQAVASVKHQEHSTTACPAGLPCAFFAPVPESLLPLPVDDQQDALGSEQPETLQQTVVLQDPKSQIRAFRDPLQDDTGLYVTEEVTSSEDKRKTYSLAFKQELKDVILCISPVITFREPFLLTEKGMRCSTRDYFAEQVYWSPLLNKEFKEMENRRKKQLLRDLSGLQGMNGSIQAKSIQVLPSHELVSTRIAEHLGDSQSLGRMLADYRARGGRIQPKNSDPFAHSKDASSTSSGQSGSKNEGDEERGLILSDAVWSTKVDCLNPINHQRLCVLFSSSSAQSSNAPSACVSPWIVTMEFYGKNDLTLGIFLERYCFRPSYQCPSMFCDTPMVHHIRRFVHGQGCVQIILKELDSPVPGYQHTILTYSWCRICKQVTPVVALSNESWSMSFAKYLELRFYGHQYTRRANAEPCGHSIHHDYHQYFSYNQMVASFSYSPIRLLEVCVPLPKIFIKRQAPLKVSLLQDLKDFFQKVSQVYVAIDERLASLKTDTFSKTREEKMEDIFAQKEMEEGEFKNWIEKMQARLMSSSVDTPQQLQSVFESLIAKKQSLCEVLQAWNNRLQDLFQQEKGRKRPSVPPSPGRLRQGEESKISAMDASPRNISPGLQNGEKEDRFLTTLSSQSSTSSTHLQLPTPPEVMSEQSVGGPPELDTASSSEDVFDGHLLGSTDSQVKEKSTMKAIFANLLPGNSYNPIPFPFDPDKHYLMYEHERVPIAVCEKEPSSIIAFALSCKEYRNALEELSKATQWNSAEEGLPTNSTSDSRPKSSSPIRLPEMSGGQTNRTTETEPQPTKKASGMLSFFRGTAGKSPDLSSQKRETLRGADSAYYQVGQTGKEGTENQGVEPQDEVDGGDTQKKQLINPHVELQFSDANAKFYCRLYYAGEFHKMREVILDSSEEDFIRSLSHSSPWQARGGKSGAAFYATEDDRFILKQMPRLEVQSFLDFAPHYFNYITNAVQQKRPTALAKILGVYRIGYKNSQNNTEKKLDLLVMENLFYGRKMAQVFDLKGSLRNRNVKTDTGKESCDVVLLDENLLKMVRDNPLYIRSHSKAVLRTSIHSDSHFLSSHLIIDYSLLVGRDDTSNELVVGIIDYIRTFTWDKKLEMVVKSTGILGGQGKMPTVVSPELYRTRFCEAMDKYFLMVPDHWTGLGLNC

SMILES: C=CC(=O)Nc1ccc(C(=O)Nc2[nH]nc3c2CN(C(=O)N[C@H](CN(C)C)c2ccccc2)C3(C)C)cc1
- % of engagement [1]: -3.5%

SMILES: COc1cc(N(C)c2ccnc3ccc(C(F)(F)F)cc23)cc(OC)c1OC
- % binding [2]: 86%
- % binding [3]: 72%

SMILES: Nc1cnc(N2CCc3cc(S(=O)(=O)Nc4c(F)cc(Cl)cc4F)cc(N4CCCC4=O)c32)nc1 [TP-020n]
- % of control [4]: 83%
- % of control [5]: 71%

SMILES: O=C(NOC[C@H](O)CO)c1ccc(F)c(F)c1Nc1ccc(I)cc1F
- % of control [6]: 100%

SMILES: Cc1cc([C@@H](C)Nc2ccccc2C(=O)O)c2nc(N3CCOCC3)cc(=O)n2c1 [AZD-6482]
- % of control [7]: 100%

SMILES: COc1cc(Nc2nc(C)cc(-c3cnn4nc(OC)ccc34)n2)cc(C(F)(F)F)c1
- % of control [8]: 100%

SMILES: N#Cc1cccc(-c2c[nH]c3ncnc(N4CCOCC4)c23)c1
- % of inhibition [9]: -10%
- % of inhibition [10]: -1%
- % of control [11]: 100%

SMILES: CCN(CC)CCCCNc1ncc2cc(-c3cc(OC)cc(OC)c3)c(NC(=O)NC(C)(C)C)nc2n1
- % of control [12]: 100%

SMILES: CN(C)C/C=C/C(=O)Nc1ccc(C(=O)N2CCCC(Nc3ncc(Cl)c(-c4c[nH]c5ccccc45)n3)C2)cc1 (centres undefined)
- % of control [13]: 84%
- % of control [14]: 47%
